Assay [1] relates to S462. Put plainly: % inhibition of CellTiter-Glo viability at highest tested concentration (72 h), relative to DMSO and benzethonium chloride controls; higher = more inhibition. In a few lines:
(§1)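 Viability of MPNST cell lines and primary human Schwann cells was read as CellTiter-Glo ATP luminescence after 72 h at 37 °C, 5% CO2, in 384-well plates seeded with 750–1000 cells per well. Each compound had been preprinted at five concentrations in 10-fold steps. Signals were scaled between vehicle and positive-control wells, duplicates averaged where present, and fitted with four-parameter logistic curves. Drug sensitivity score and relative IC50 (censored at the top concentration) come from those fits, and percent inhibition is taken at the top concentration.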
Background: In ATP-based viability assays light output follows the ATP content of the culture.

In assay [2] the test system is HS-PSS. Described as above. In a few lines:
as §1

Assay [3] relates to YST-1. The description is as above. In a few lines: as §1
Assay [4] relates to HS-Sch-2. The assay is described as above. In a few lines:
as §1

The subject of assay [5] is ST8814. Described as above. In a few lines: as §1
The subject of assay [6] is STS26T. Described as above. The method in brief: as §1
Assay [7] relates to HSC2 (primary human Schwann cells). Described as above. In a few lines:
as §1

In assay [8] the test system is HSC1 (primary human Schwann cells). The description is as above. In a few lines:
as §1

Assay [9] relates to S1507-2. The assay is described as above. In a few lines: as §1
In assay [10] the test system is S462. Put plainly: drug sensitivity score (DSS, CellTiter-Glo viability, 72 h) (DSS (dimensionless)); higher = more sensitive; extreme values may be limits of the assay. In a few lines:
as §1

In assay [11] the test system is HS-PSS. Described as above. The method in brief:
as §1

Assay [12] concerns YST-1. The assay is described as above. The method in brief:
as §1

Assay [13] has as its system HS-Sch-2. Described as above. In a few lines: as §1
In assay [14] the test system is ST8814. The assay is described as above. In a few lines:
as §1

For assay [15], the system named is STS26T. Described as above. The method in brief:
as §1

Assay [16] deals with HSC2 (primary human Schwann cells). The description is as above. The method in brief:
as §1

Assay [17] deals with HSC1 (primary human Schwann cells). Described as above. The method in brief:
as §1

Assay [18] concerns S1507-2. The assay is described as above. In a few lines:
as §1

Assay [19] concerns HS-PSS. Put plainly: drug sensitivity score (DSS, CellTox-Green cytotoxicity, 72 h) (DSS (dimensionless)); higher = more cytotoxic; extreme values may be limits of the assay. In a few lines: (§2)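 MPNST cell lines and primary human Schwann cells were grown for 72 h at 37 °C in 384-well plates containing five 10-fold compound dilutions. CellTox-Green, added before seeding at a final 1:1000 dilution, gave fluorescence from DNA released by disrupted cells, and signals were scaled to vehicle and positive-control wells. Curves were fitted with a four-parameter logistic model. Drug sensitivity score and relative IC50 come from these fits, with IC50 censored at the top concentration.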

The subject of assay [20] is ST8814. Described as above. The method in brief:
as §2

For assay [21], the system named is STS26T. Described as above. The method in brief:
as §2

Assay [22] relates to HSC2 (primary human Schwann cells). The description is as above. The method in brief:
as §2

The subject of assay [23] is HSC1 (primary human Schwann cells). The description is as above. In a few lines: as §2
For assay [24], the system named is S1507-2. Described as above. The method in brief: as §2

± gives the standard deviation of the averaged measurements.

What is called % inhibition is the change of the read-out against control, counted positive when it falls. Regarding `C[C@]1(c2nc3c(C(N)=O)cccc3[nH]2)CCCN1` [Veliparib] (max concentration tested 10000 nM), the “% inhibition” value with S462 [1] was 12 ± 3.7%; with HS-PSS [2], 10%; in the assay on YST-1 [3] it was 49%; with HS-Sch-2 [4], 2.46%; in the assay on ST8814 [5], 9.88%; with STS26T [6], 10.6%. Also, the “% inhibition” value in [7] came to 18.2%; in assay [8], 14.6%; in the assay with S1507-2 [9] it was 10.9 ± 5.5%. For the same compound, the drug sensitivity score in the assay with S462 [10] was found to be 0.0431 ± 0.061; in the assay with HS-PSS [11], 0; in the assay with YST-1 [12], 4.89; with HS-Sch-2 [13], 0; in the assay on ST8814 [14], 0; with STS26T [15] it was 0. The drug sensitivity score in assay [16] was determined as 0.954; in assay [17], 0.338; in the assay on S1507-2 [18], 1.93 ± 2.7; in the assay with HS-PSS [19] it was 0; in the assay on ST8814 [20] it was 0; with STS26T [21], 0. In addition, the drug sensitivity score (in [22]; in assay [23]; in the assay on S1507-2 [24]) was 0 in each case.
`CCCS(=O)(=O)Nc1ccc(F)c(C(=O)c2c[nH]c3ncc(-c4ccc(Cl)cc4)cc23)c1F` [Vemurafenib] (max concentration tested 10000 nM): the “% inhibition” value in the assay with S462 [1] was found to be 12.6 ± 17%; in the assay on HS-PSS [2], 29.3%; in the assay with YST-1 [3] it was 1.68%; with HS-Sch-2 [4] it was 34.4%; in the assay on ST8814 [5], 1.91%; with STS26T [6] it was 41.5%. In addition, the “% inhibition” value amounted to 70.7% in assay [7], 70.2% in assay [8] and 7.31 ± 3.8% with S1507-2 [9]. The drug sensitivity score stood at 0 in the assay with S462 [10]; 1.03 with HS-PSS [11]; 0 in the assay with YST-1 [12]; 1.24 in the assay on HS-Sch-2 [13]; 0 in the assay with ST8814 [14]; 3.31 in the assay with STS26T [15]. The drug sensitivity score in assay [16] amounted to 6.66; in [17] it was 6.16; in the assay with S1507-2 [18] it was 0.879 ± 1.2; in the assay on HS-PSS [19], 0; in the assay with ST8814 [20], 0.417; in the assay with STS26T [21], 2.82. The drug sensitivity score (in [22]; in [23]; in the assay on S1507-2 [24]) was 0 in each case.
In the case of `CC[C@]1(O)C[C@@H]2CN(CCc3c([nH]c4ccccc34)[C@@](C(=O)OC)(c3cc4c(cc3OC)N(C)[C@H]3[C@@](O)(C(=O)OC)[C@H](OC(C)=O)[C@]5(CC)C=CCN6CC[C@]43[C@@H]65)C2)C1` [Vinblastine] (max concentration tested 1000 nM), the “% inhibition” value in the assay with S462 [1] was 93.02 ± 0.22%; in the assay with HS-PSS [2], 67.2%; in the assay with YST-1 [3] it was 83.8%; with HS-Sch-2 [4], 91.9%; in the assay on ST8814 [5] it was 84.7%; with STS26T [6], 92.4%. In addition, the “% inhibition” value in assay [7] amounted to 87%; in [8], 76%; in the assay with S1507-2 [9] it was 81.1 ± 2.3%. For the same compound, the drug sensitivity score in the assay on S462 [10] turned out to be 29.53 ± 0.036; in the assay with HS-PSS [11], 16.2; in the assay with YST-1 [12], 24.8; in the assay on HS-Sch-2 [13], 30; in the assay on ST8814 [14] it was 26.8; in the assay on STS26T [15], 30.1. Moreover, the drug sensitivity score in [16] is 23.9; in assay [17], 19.5; in the assay with S1507-2 [18], 22.63 ± 0.18; with HS-PSS [19], 1.24; with ST8814 [20], 31.1; with STS26T [21], 32.9. Moreover, the values for the drug sensitivity score (in assay [22]; in assay [23]; in the assay with S1507-2 [24]) were 21.5, 10.7 and 19.7 ± 1.8, respectively.
Take `CC[C@]1(O)C[C@H]2CN(CCc3c([nH]c4ccccc34)[C@@](C(=O)OC)(c3cc4c(cc3OC)N(C=O)[C@H]3[C@@](O)(C(=O)OC)[C@H](OC(C)=O)[C@]5(CC)C=CCN6CC[C@]43[C@@H]65)C2)C1` [Vincristine] (max concentration tested 1000 nM): the “% inhibition” value in the assay with S462 [1] is 95.45 ± 0.25%; with HS-PSS [2], 67.8%; with YST-1 [3], 81.9%; in the assay with HS-Sch-2 [4], 94%; in the assay on ST8814 [5] it was 90.3%; in the assay with STS26T [6] it was 94.5%. In addition, the entries for the “% inhibition” value (in assay [7]; in [8]; in the assay on S1507-2 [9]) were 90.7%, 75.5% and 79.8 ± 1.9%, respectively. In addition, the drug sensitivity score in the assay with S462 [10] turned out to be 28.88 ± 0.23; in the assay on HS-PSS [11], 17; in the assay with YST-1 [12], 26.7; in the assay with HS-Sch-2 [13], 30.5; in the assay with ST8814 [14], 23.6; with STS26T [15], 32.4. In addition, the drug sensitivity score in assay [16] came out at 20.9; in assay [17], 17.9; in the assay on S1507-2 [18], 21.1 ± 0.68; with HS-PSS [19], 0.55; in the assay on ST8814 [20], 24.3; with STS26T [21] it was 36. For the same compound, the drug sensitivity score in [22] worked out at 12.1; in assay [23], 8.67; with S1507-2 [24], 13 ± 3.
Regarding `CCC1=C[C@@H]2CN(C1)Cc1c([nH]c3ccccc13)[C@@](C(=O)OC)(c1cc3c(cc1OC)N(C)[C@H]1[C@@](O)(C(=O)OC)[C@H](OC(C)=O)[C@]4(CC)C=CCN5CC[C@]31[C@@H]54)C2` [Vinorelbine] (max concentration tested 10000 nM), the “% inhibition” value stood at 99.19 ± 0.43% in the assay with S462 [1]; 80.5% with HS-PSS [2]; 94.3% with YST-1 [3]; 98.5% in the assay with HS-Sch-2 [4]; 94.7% in the assay with ST8814 [5]; 94.5% in the assay with STS26T [6]. For the same compound, the figures for the “% inhibition” value (in [7]; in assay [8]; with S1507-2 [9]) were 88.8%, 78.9% and 80.4 ± 4.8%, respectively. The drug sensitivity score in the assay on S462 [10] turned out to be 30.2 ± 0.41; in the assay on HS-PSS [11], 24.6; in the assay with YST-1 [12] it was 40.2; in the assay on HS-Sch-2 [13], 40.6; in the assay on ST8814 [14], 20.6; with STS26T [15], 31.9. The drug sensitivity score worked out at 20.8 in [16]; 16.7 in [17]; 19.1 ± 0.81 with S1507-2 [18]; 2.69 in the assay with HS-PSS [19]; 19.7 in the assay on ST8814 [20]; 34.4 in the assay with STS26T [21]. The drug sensitivity score in assay [22] amounted to 13.5; in assay [23] it was 12.5; in the assay with S1507-2 [24], 19.2 ± 3.6.
In the case of `CS(=O)(=O)c1ccc(C(=O)Nc2ccc(Cl)c(-c3ccccn3)c2)c(Cl)c1` [Vismodegib] (max concentration tested 10000 nM), the “% inhibition” value is -4.72 ± 14% in the assay on S462 [1]; 13.9% in the assay with HS-PSS [2]; 6.14% in the assay with YST-1 [3]; 17.3% in the assay with HS-Sch-2 [4]; -2.96% in the assay on ST8814 [5]; 2.72% with STS26T [6]. In addition, the “% inhibition” value is -4.33% in [7], -4.59% in [8] and 2.36 ± 1.7% in the assay on S1507-2 [9]. For the same compound, the drug sensitivity score in the assay on S462 [10] came out at 0; in the assay on HS-PSS [11] it was 0.05; with YST-1 [12], 0; in the assay on HS-Sch-2 [13], 1.12; with ST8814 [14] it was 0; in the assay on STS26T [15] it was 0. The drug sensitivity score (in [16]; in [17]; in the assay with S1507-2 [18]; in the assay on HS-PSS [19]; with ST8814 [20]; in the assay on STS26T [21]) was 0 each time. Moreover, the drug sensitivity score (in assay [22]; in assay [23]; with S1507-2 [24]) was 0 each time.
